In patent publication US5162336A, “Tetrahydro-pyrido-indoles as cholecystokinin and gastrin antagonists” (Rhone-Poulenc Rorer Pharmaceuticals Inc., priority 1990, dated 1992) one finds IC50 data, which are given here for 3 compounds.

In the experiment the target is T1, Gastrin receptor (Cavia porcellus, UniProt H0VZC5).
T1 construct: The fundic mucosa is gently scraped off the submucosa; from tissue; host or cells: gastric glands from fundic mucosa of Hartley guinea pig
T1 sequence (H0VZC5 1-426): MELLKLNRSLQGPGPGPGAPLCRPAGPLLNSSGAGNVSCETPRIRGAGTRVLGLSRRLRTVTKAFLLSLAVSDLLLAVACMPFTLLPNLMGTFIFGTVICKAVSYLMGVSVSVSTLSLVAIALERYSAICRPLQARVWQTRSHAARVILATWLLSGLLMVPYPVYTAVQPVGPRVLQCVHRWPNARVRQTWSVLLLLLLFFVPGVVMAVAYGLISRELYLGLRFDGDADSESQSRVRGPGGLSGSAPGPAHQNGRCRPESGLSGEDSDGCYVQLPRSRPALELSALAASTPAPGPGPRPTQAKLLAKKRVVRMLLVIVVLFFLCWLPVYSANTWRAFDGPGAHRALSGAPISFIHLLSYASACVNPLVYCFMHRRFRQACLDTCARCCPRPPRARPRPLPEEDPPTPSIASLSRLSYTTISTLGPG
Description: Gastrin receptor binding assay (displacement of 125I-(Leu-15)-Gastrin from guinea pig fundic glands). Set-up: species or system guinea pig (Hartley Strain). The note with it: guinea pig fundic mucosa glands, 25° C., 30 min, read-out: In vitro Binding Data IC50 Gastrin. The procedure, abridged: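 Isolated gastric fundic glands from Hartley guinea pig (collagenase digestion, 2x10^5 glands/ml) incubated 30 min at 25 °C under 95% O2/5% CO2 with tracer ^125I-(Leu-15)-gastrin and compound in triplicate. Bound tracer collected on glass fiber filters and gamma-counted; nonspecific defined with 25 μM (Leu-15)-gastrin stock. IC50 = concentration giving 50% loss of specific binding, from log-concentration plot.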
On the technique in general: In a radioligand displacement assay an active substance lowers the binding of a labelled ligand.

For `CC(C)C[C@H](NC(=O)[C@H]1Cc2c([nH]c3ccccc23)CN1C(=O)Nc1cccc(F)c1)C(=O)N[C@@H](CC(=O)O)C(N)=O` [Example 65], the IC50 worked out at 7300 nM.
As for `CC(C)C[C@H](NC(=O)[C@H]1Cc2c([nH]c3ccccc23)CN1C(=O)Nc1ccc(Cl)c(Cl)c1)C(=O)N[C@@H](CC(=O)O)C(N)=O` [Example 66], the IC50 is 540 nM.
The figure for `CC(C)C[C@H](NC(=O)[C@H]1Cc2c([nH]c3ccccc23)CN1C(=O)Nc1cccc2ccccc12)C(=O)N[C@@H](CC(=O)O)C(N)=O` [Example 67, N-[(3R)-2-(1-naphthylcarbamoyl)-1,2,3,4-tetrahydro-9H-pyrido[3,4-b]indole-3-carboxyl]-L-leucyl-L-aspartic acid amide] is 2000 nM.

By IC50 is commonly meant the midpoint of a concentration-inhibition curve.
